Tests used:
[1] = target: BRAF (V600E) kinase (Homo sapiens (Human), UniProt P15056, V600E); experiment: BRAF (V600E) kinase inhibitory activity; type: biochemical; conditions: BRAF (V600E) enzyme, GSTP1-MEK1 (K96R) substrate, compound 1.0 μM; read-out: Inhibitory rate (%) at 1.0 μM
Method: A test compound (2.5 μL) dissolved in dimethyl sulfoxide (DMSO) was added to 37.5 μL of a reaction solution (25 mM HEPES (pH 7.5), 10 mM magnesium acetate, 1 mM dithiothreitol) containing 30 ng of BRAF (V600E) enzyme and 250 ng of recombinant protein GSTP1-MEK1 (K96R) prepared using FreeStyle 293 expression system (Invitrogen), and the mixture was incubated at room temperature for 10 min. 10 μL of ATP solution (2.5 μM ATP, 0.1 μCi [γ-^32P]ATP) was added to the obtained mixture, and the mixture was reacted at room temperature for 20 min. The reaction was quenched by adding 50 μL of ice-cooled 20% trichloroacetic acid (Wako Pure Chemical Industries, Ltd.) to the reaction solution. The reaction solution was allowed to stand at 4° C. for 30 min., and the acid-precipitable fraction was transferred to GF/C filter plate (Millipore Corporation) using cell harvester (PerkinElmer). The plate was dried at 45° C. for 60 min., and 40 μL of MicroScinti 0 (PerkinElmer) was added thereto. The radioactivity was measured using TopCount (PerkinElmer). The kinase inhibitory rate (%) of the test compound was calculated by the following formula: Inhibitory rate (%)=(1−(count of test compound−blank)÷(control−blank))×100
The count of the solution reacted without addition of the compound was used as a “control”, and the count of the solution without the compound and enzyme was used as a “blank”.

[2] = tested on: MEK1/2 phosphorylation in human colon cancer cell HT-29; experiment: Colon cancer cell HT-29 intracellular MEK phosphorylation inhibitory activity in vitro; type: cell-based; conditions: HT-29 cells; for IC50: 2 hrs treatment, phosphorylated MEK1/2 Western blot; for inhibition at 0.5 µM: MEK1/2 protein phosphorylation, compound 0.5 μM, read-out: Inhibitory rate (%) at 0.5 μM
Method: 500 μL of a cell suspension of human colon cancer cell HT-29 (purchased from American Type Culture Collection (ATCC)) was plated in a 48-well plate (100,000 cells/well), and the cells were cultured overnight at 37° C. in the presence of 5% CO2, treated with a test compound (250 μL/well) diluted in 3-fold dilution series and cultured for 2 hrs. After 2 hrs, the culture medium containing the test compound was removed, and the cells were lysed with SDS sample buffer (100 μL/well) and heated at 95° C. for 5 min. Thereafter, the cells lysed with SDS sample buffer were applied to SDS-PAGE, and the protein was transferred onto Sequi-Blot™ PVDF Membrane (Bio-Rad) by the Western blot method. The PDVF membrane was blocked with a Block-Ace solution (Snow Brand Milk Products Co., Ltd) dissolved in phosphate buffered saline (MP Biochemicals) to 5% W/V, and reacted overnight with anti-phosphorylated MEK1/2 (Ser217/221) (Cell signaling #9121) diluted 1000-fold with phosphate buffered saline containing 0.4% Block-Ace. The membrane was washed with phosphate buffered saline containing 0.1% Tween 20 (Wako Pure Chemical Industries, Ltd.), and reacted at room temperature for 1 hr with HRP labeled rabbit IgG polyclonal antibody (Cell signaling #7074) diluted 1000-fold with phosphate buffered saline containing 0.4% Block-Ace. The membrane was washed in the same manner as above, chemical luminescence of a phosphorylated MEK1/2 protein labeled with the antibody, which was caused by ECL-plus Detection Reagent (Amersham bioscience), was detected by Luminescent Image Analyzer LAS-1000 (FUJIFILM Corporation). Taking the luminescence of the control group free of the test compound as 100%, the concentration (IC50 value) of the compound necessary for inhibiting the residual luminescence to 50% of the control group was calculated. In addition, MEK1/2 protein phosphorylation inhibitory rate (%) of the test compound at compound concentration 0.5 μM was calculated by the following formula. The results are shown in Table 2-B. Inhibitory rate (%)=(1−(luminescence of test compound−blank)÷(luminescence of control group−blank))×100

[3] = tested on: human colon cancer cell HT-29; experiment: Colon cancer cell HT-29 growth suppressive activity in vitro; type: cell-based; conditions: for IC50: 72 h, HT-29 cells, 3 days culture, SRB staining; for inhibition at 10 µM: HT-29 cell proliferation, compound 10 μM, read-out: Inhibitory rate (%) at 10 μM
Method: 100 μL of a cell suspension (3,000 cells/well) of human colon cancer cell HT-29 (purchased from ATCC) was plated in a 96-well plate, and the cells were cultured at 37° C. in the presence of 5% CO2. The next day, 100 μL of culture medium containing each test compound diluted in 2-fold dilution was added, and the cells were cultured for 3 days. The culture medium containing the test compound was removed, and the cells were washed with phosphate buffered saline (MP Biochemicals). A 50% trichloroacetic acid solution was added to the final concentration of 10% (v/v), and the mixture was stood overnight at 4° C., whereby the cells were fixed to the plate. Then, a dye SRB 0.4% (w/v) solution (dissolved in 1% acetic acid) was added at 50 μl/well, whereby the cell protein was fixed and stained (Skehan et al., Journal Of National Cancer Institute, vol. 82, pp. 1107-1112, 1990). The cells were washed 3 times with 1% acetic acid solution (200 μL/well), and 100 μL of an extract (10 mM Tris buffer) was added to extract the dye. The absorbance at an absorption wavelength 550 nm was measured, and cell amount was measured as a protein amount. Taking the protein amount of the control group free of the test compound solution as 100%, the proportion of the residual protein amount of each treatment group was determined and the concentration of the compound necessary for suppressing the residual cell amount to 50% of the control (IC50 value) was calculated. In addition, cell proliferation inhibitory rate (%) of the test compound at compound concentration 10 μM was calculated by the following formula. The results are shown in Table 3-B. Inhibitory rate (%)=(1−(absorbance of test compound−blank)÷(absorbance of control group−blank))×100

Chain of BRAF (V600E) kinase (P15056 457-717 V600E): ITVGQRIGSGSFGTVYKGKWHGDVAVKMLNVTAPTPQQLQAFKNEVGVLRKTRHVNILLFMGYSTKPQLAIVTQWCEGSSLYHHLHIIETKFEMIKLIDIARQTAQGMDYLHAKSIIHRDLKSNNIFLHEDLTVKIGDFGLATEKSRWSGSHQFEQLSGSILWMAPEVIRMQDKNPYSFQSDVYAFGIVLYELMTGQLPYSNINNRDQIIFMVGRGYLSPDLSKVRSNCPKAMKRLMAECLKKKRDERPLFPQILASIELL

CC(C)(C#N)c1cccc(C(=O)Nc2cccc(Oc3ccc4nc(NC(=O)C5CC5)sc4c3C#N)c2)c1 [Example 1, N-[3-({7-cyano-2-[(cyclopropylcarbonyl)amino]-1,3-benzothiazol-6-yl}oxy)phenyl]-3-(1-cyano-1-methylethyl)benzamide] was tested, and the inhibition at 1 µM [1] was 101%.

With CC(=O)Nc1nc2ccc(Oc3cccc(NC(=O)c4cccc(C(C)(C)C#N)c4)c3)c(C#N)c2s1 [Example 11, N-(3-{[2-(acetylamino)-7-cyano-1,3-benzothiazol-6-yl]oxy}phenyl)-3-(1-cyano-1-methylethyl)benzamide] the inhibition at 1 µM [1] was 101%.

CC(=O)Nc1nc2ccc(Oc3cccc(NC(=O)C(C)(C)c4cccc(Br)c4)c3)c(C#N)c2s1 [Example 13, N-(3-{[2-(acetylamino)-7-cyano-1,3-benzothiazol-6-yl]oxy}phenyl)-2-(3-bromophenyl)-2-methylpropanamide] was tested, and the inhibition at 1 µM [1] was 98%.

CC(=O)Nc1nc2ccc(Oc3cccc(NC(=O)Nc4ccc(Cl)c(C(F)(F)F)c4)c3)c(C#N)c2s1 [Example 21, N-{6-[3-({[4-chloro-3-(trifluoromethyl)phenyl]carbamoyl}amino)phenoxy]-7-cyano-1,3-benzothiazol-2-yl}acetamide] gave an inhibition at 1 µM [1] of 100%.

CC(=O)Nc1nc2ccc(Oc3cccc(NC(=O)Nc4ccc(C(C)(C)C)cc4)c3)c(C#N)c2s1 [Example 22, N-[6-(3-{[(4-tert-butylphenyl)carbamoyl]amino}phenoxy)-7-cyano-1,3-benzothiazol-2-yl]acetamide] was tested, and the IC50 [2] was less than 300 nM and the inhibition at 0.5 µM [2] was 83%.

Work on N#Cc1c(Oc2ccc(F)c(NC(=O)Nc3ccc(C(F)(F)F)cc3)c2)ccc2nc(NC(=O)C3CC3)sc12 [Example 32, N-{7-cyano-6-[4-fluoro-3-({[4-(trifluoromethyl)phenyl]carbamoyl}amino)phenoxy]-1,3-benzothiazol-2-yl}cyclopropanecarboxamide] yielded an IC50 [2] of less than 300 nM and an inhibition at 0.5 µM [2] of 83%.

CC(C)(C#N)c1cccc(C(=O)Nc2cccc(Oc3ccc4nc(NC(=O)C5CC5)sc4c3[N+](=O)[O-])c2)c1 [Example 37, 3-(1-cyano-1-methylethyl)-N-[3-({2-[(cyclopropylcarbonyl)amino]-7-nitro-1,3-benzothiazol-6-yl}oxy)phenyl]benzamide] gave an IC50 [3] of less than 500 nM and an inhibition at 10 µM [3] of 93%.

With CC(C)(C#N)c1cccc(C(=O)Nc2cccc(Oc3ccc4nc(NC(=O)C5CC5)sc4c3N)c2)c1 [Example 43, N-[3-({7-amino-2-[(cyclopropylcarbonyl)amino]-1,3-benzothiazol-6-yl}oxy)phenyl]-3-(1-cyano-1-methylethyl)benzamide] the IC50 [3] was less than 500 nM and the inhibition at 10 µM [3] was 100%.

CC(C)(C#N)c1cccc(C(=O)Nc2cccc(Oc3ccc4nc(NC(=O)C5CC5)sc4c3Cl)c2)c1 [Example 44, N-[3-({7-chloro-2-[(cyclopropylcarbonyl)amino]-1,3-benzothiazol-6-yl}oxy)phenyl]-3-(1-cyano-1-methylethyl)benzamide] gave an IC50 [3] of less than 500 nM and an inhibition at 10 µM [3] of 93%.

Compound CC(=O)Nc1nc2ccc(Oc3cccc(NC(=O)Cc4cccc(C(F)(F)F)c4)c3)c(C#N)c2s1 [Example 49, N-(3-{[2-(acetylamino)-7-cyano-1,3-benzothiazol-6-yl]oxy}phenyl)-2-[3-(trifluoromethyl)phenyl]acetamide] has an IC50 [2] of less than 300 nM and an inhibition at 0.5 µM [2] of 63%.

In the case of N#Cc1c(Oc2cccc(NC(=O)Nc3ccc(C(F)(F)F)nc3)c2)ccc2nc(NC(=O)C3CC3)sc12 [Example 51, N-{7-cyano-6-[3-({[6-(trifluoromethyl)pyridin-3-yl]carbamoyl}amino)phenoxy]-1,3-benzothiazol-2-yl}cyclopropanecarboxamide], the inhibition at 1 µM [1] is reported as 100%.

Work on N#Cc1c(Oc2cccc(NC(=O)Nc3ccc(C(F)(F)F)cn3)c2)ccc2nc(NC(=O)C3CC3)sc12 [Example 52, N-{7-cyano-6-[3-({[5-(trifluoromethyl)pyridin-2-yl]carbamoyl}amino)phenoxy]-1,3-benzothiazol-2-yl}cyclopropanecarboxamide] yielded an inhibition at 1 µM [1] of 98%.

For COC(=O)c1c(Oc2ccc(F)c(NC(=O)Cc3cccc(C(F)(F)F)c3)c2)ccc2nc(NC(=O)C3CC3)sc12 [Example 54, methyl 2-[(cyclopropylcarbonyl)amino]-6-[4-fluoro-3-({[3-(trifluoromethyl)phenyl]acetyl}amino)phenoxy]-1,3-benzothiazole-7-carboxylate], the IC50 [2] was less than 300 nM and the inhibition at 0.5 µM [2] was 100%.

— patent US8497274B2, “Heterocyclic compound and use thereof” (Takeda Pharmaceutical Company Limited, priority 2008, dated 2013)
